# System: 556581-035-R-J1-PDC complex spheroid growth
# Assay: Anticancer human tumor 556581-035-R-J1-PDC patient-derived ovarian carcinoma cell line growth inhibition [AhR]
# Details: for IC50: curve of first compound; for viability, T/C: stronger effect = lower value
# How it was run: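 Agents were dosed in half-log steps down from roughly clinical Cmax, or from 10 microM where Cmax was unknown, alone and with AhR antagonists. Read-out: percent test/control growth of tumor spheroids containing HUVEC and MSC stromal cells.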
# [1] = second compound 0.1 µM, first compound 0.0316 µM
# [2] = second compound 0.1 µM, first compound 0.1 µM
# [3] = second compound 0.1 µM, first compound 0.316 µM
# [4] = second compound 0.1 µM, first compound 1 µM
# [5] = second compound 0.1 µM, first compound 3.16 µM
# [6] = second compound 0.1 µM, first compound 10 µM
# [7] = second compound 0.316 µM, first compound 0.0316 µM
# [8] = second compound 0.316 µM, first compound 0.1 µM
# [9] = second compound 0.316 µM, first compound 0.316 µM
# [10] = second compound 0.316 µM, first compound 1 µM
# [11] = second compound 0.316 µM, first compound 3.16 µM
# [12] = second compound 0.316 µM, first compound 10 µM
# [13] = second compound 1 µM, first compound 0.0316 µM
# [14] = second compound 1 µM, first compound 0.1 µM
# [15] = second compound 1 µM, first compound 0.316 µM
# [16] = second compound 1 µM, first compound 1 µM
# [17] = second compound 1 µM, first compound 3.16 µM
# [18] = second compound 1 µM, first compound 10 µM
# [19] = second compound 3.16 µM, first compound 0.0316 µM
# [20] = second compound 3.16 µM, first compound 0.1 µM
# [21] = second compound 3.16 µM, first compound 0.316 µM
# [22] = second compound 3.16 µM, first compound 1 µM
# [23] = second compound 3.16 µM, first compound 3.16 µM
# [24] = second compound 3.16 µM, first compound 10 µM
# [25] = second compound 10 µM, first compound 0.0316 µM
# [26] = second compound 10 µM, first compound 0.1 µM
# [27] = second compound 10 µM, first compound 0.316 µM
# [28] = second compound 10 µM, first compound 1 µM
# [29] = second compound 10 µM, first compound 3.16 µM
# [30] = second compound 10 µM, first compound 10 µM
# 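For viability, T/C in this document: compound exposure lasted 7 days; 100% = DMSO vehicle control growth.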
SMILES,IC50 (second compound 0.1 µM) [µM],IC50 (second compound 0.316 µM) [µM],IC50 (second compound 1 µM) [µM],IC50 (second compound 3.16 µM) [µM],IC50 (second compound 10 µM) [µM],"viability, T/C [1] [%]","viability, T/C [2] [%]","viability, T/C [3] [%]","viability, T/C [4] [%]","viability, T/C [7] [%]","viability, T/C [8] [%]","viability, T/C [9] [%]","viability, T/C [10] [%]","viability, T/C [13] [%]","viability, T/C [14] [%]","viability, T/C [15] [%]","viability, T/C [16] [%]","viability, T/C [19] [%]","viability, T/C [20] [%]","viability, T/C [21] [%]",also measured
CC(C)c1c(-c2ccccc2)nc2c(C#N)c[nH]n2c1=O + Cc1cncc(-c2nc(NCCc3c[nH]c4ccccc34)c3ncn(C(C)C)c3n2)c1,> 10,> 10,> 10,> 10,> 10,110,106,102,103,106,110,96.9,108,97.4,107,114,102,98.6,104,99.2,"viability, T/C [5]: 108%; viability, T/C [6]: 88.5%; viability, T/C [11]: 95.6%; viability, T/C [12]: 96.3%; viability, T/C [17]: 91.8%; viability, T/C [18]: 102%; viability, T/C [22]: 92.7%; viability, T/C [23]: 95.5%; viability, T/C [24]: 90.5%; viability, T/C [25]: 76.5%; viability, T/C [26]: 84%; viability, T/C [27]: 90%; viability, T/C [28]: 71.1%; viability, T/C [29]: 68.2%; viability, T/C [30]: 70.7%"
CC1COCCN1c1cc(-c2ccnn2C)c2ccnc(-c3ccn[nH]3)c2n1 (stereo not given) + Cc1cncc(-c2nc(NCCc3c[nH]c4ccccc34)c3ncn(C(C)C)c3n2)c1,0.621,0.518,0.796,0.76,0.877,89.8,82.2,62.8,40.5,93.2,83,55.6,41.9,101,83.8,57.4,48,88.6,75.7,62.4,"viability, T/C (second compound 0.1 µM, first compound 0.00316 µM): 99.4%; viability, T/C (second compound 0.1 µM, first compound 0.01 µM): 96.1%; viability, T/C (second compound 0.316 µM, first compound 0.00316 µM): 98.2%; viability, T/C (second compound 0.316 µM, first compound 0.01 µM): 104%; viability, T/C (second compound 1 µM, first compound 0.00316 µM): 100%; viability, T/C (second compound 1 µM, first compound 0.01 µM): 102%; viability, T/C (second compound 3.16 µM, first compound 0.00316 µM): 101%; viability, T/C (second compound 3.16 µM, first compound 0.01 µM): 95.1%; viability, T/C [22]: 46.2%; viability, T/C (second compound 10 µM, first compound 0.00316 µM): 77.6%; viability, T/C (second compound 10 µM, first compound 0.01 µM): 71.9%; viability, T/C [25]: 71.4%; viability, T/C [26]: 64.3%; viability, T/C [27]: 57.7%; viability, T/C [28]: 49%"
COc1ccc([C@@H](O)c2cc(-c3ncnc4cc(N5CCOCC5)ccc34)c(F)cc2Cl)nn1 + Cc1cncc(-c2nc(NCCc3c[nH]c4ccccc34)c3ncn(C(C)C)c3n2)c1,3.12,7.28,4.2,6.93,9.85,113,114,108,72.2,110,105,102,77.8,111,112,116,87.9,103,113,88.5,"viability, T/C [5]: 51.4%; viability, T/C [6]: 45.6%; viability, T/C [11]: 60.8%; viability, T/C [12]: 45.8%; viability, T/C [17]: 53.8%; viability, T/C [18]: 42.5%; viability, T/C [22]: 82.6%; viability, T/C [23]: 54.2%; viability, T/C [24]: 47.8%; viability, T/C [25]: 82.2%; viability, T/C [26]: 85.7%; viability, T/C [27]: 89.1%; viability, T/C [28]: 74.8%; viability, T/C [29]: 61.5%; viability, T/C [30]: 49.5%"
